Experimental data: article PMC6253998, “Ring-substituted 4-Hydroxy-1H-quinolin-2-ones: Preparation and Biological Activity” (Molecules, 2009)
≈ marks a conversion by molar mass, not a printed value. Where two headings read alike, the source gives them in different places.

Experiments:
[1] = Lipophilicity HPLC determination (capacity factor k / log k); type: physicochemical; details: RP-HPLC, C18 column, MeOH 55.0% / H2O 45.0%, isocratic
Method: Hydrophobicities (log P/Clog P values) of the compounds 1-12 were calculated using two commercially available programs and also measured by means of the reversed phase high performance liquid chromatography (RP-HPLC) method for lipophilicity measurement. The procedure was performed under isocratic conditions with methanol as an organic modifier in the mobile phase using an end-capped non-polar C18 stationary RP column. The capacity factors k were determined and subsequent log k values were calculated.
The HPLC separation module Waters Alliance 2695 XE and Waters Photodiode Array Detector 2996 (Waters Corp., Milford, MA, U.S.A.) were used. A Symmetry® C18 5 μm, 4.6 × 250 mm, Part No. WAT054275, (Waters Corp., Milford, MA, U.S.A.) chromatographic column was used. The HPLC separation process was monitored by Millennium32® Chromatography Manager Software, Waters 2004 (Waters Corp., Milford, MA, U.S.A.). The mixture of MeOH p.a. (55.0%) and H2O-HPLC – Mili-Q Grade (45.0%) was used as a mobile phase. The total flow of the column was 0.9 mL/min, injection 30 μL, column temperature 30 °C and sample temperature 10 °C. The detection wavelength 210 nm was chosen. The KI methanolic solution was used for the dead time (TD) determination. Retention times (tR) were measured in minutes. The capacity factors k were calculated using the Millennium32® Chromatography Manager Software according to formula k = (tR - tD) / tD, where tR is the retention time of the solute, whereas tD denotes the dead time obtained via an unretained analyte. Log k, calculated from the capacity factor k, is used as the lipophilicity index converted to log P scale.

eight fungal strains = assay: In vitro antifungal screening, overall verdict; type: cell-based; details: especially against Candida albicans ATCC 44859
Method: (§1) The broth microdilution test was used for the assessment of in vitro antifungal activity of the synthesized compounds against Candida albicans ATCC 44859 (CA), Candida tropicalis 156 (CT), Candida krusei ATCC 6258 (CK), Candida glabrata 20/I (CG), Trichosporon beigelii 1188 (TB), Aspergillus fumigatus 231 (AF), Absidia corymbifera 272 (AC), and Trichophyton mentagrophytes 445 (TM). Fluconazole (FLU) was used as the standard of a clinically used antimycotic drug. The procedure was performed with twofold dilution of the compounds in RPMI 1640 (Sevapharma a.s., Prague, Czech Republic) buffered to pH 7.0 with 0.165 mol of 3-morpholino-propane-1-sulfonic acid (MOPS, Sigma, Germany). The final concentrations of the compounds ranged from 500 to 0.975 μmol/l. Drug–free controls were included. The MIC was defined as an 80% or greater (IC80) reduction of growth in comparison with the control. The values of MICs were determined after 24 and 48 h of static incubation at 35 °C. For T. mentagrophytes, the final MICs were determined after 72 and 120 h of incubation.

[2] = test system: Trichophyton mentagrophytes 445; assay: In vitro antifungal broth microdilution test; type: cell-based
Method: (§2) Fluconazole (FLU) was used as the standard of a clinically used antimycotic drug. The procedure was performed with twofold dilution of the compounds in […]., Prague, Czech Republic) buffered to pH 7.0 with 0.165 mol of 3-morpholino-propane-1-sulfonic acid (MOPS, Sigma, Germany). […] Drug-free controls were included. The MIC was defined as an 80% or greater (IC80) reduction of growth in comparison with the control.

[3] = test system: Candida albicans ATCC 44859; assay: In vitro antifungal broth microdilution test; type: cell-based; details: for MIC: Candida albicans
Method: as §2

Candida tropicalis 156 = assay: In vitro antifungal broth microdilution test; type: cell-based
Method: as §2

Candida glabrata 20/I = assay: In vitro antifungal broth microdilution test; type: cell-based; details: for MIC: Nakaseomyces glabratus, 20/I
Method: as §2

Absidia corymbifera 272 = assay: In vitro antifungal broth microdilution test; type: cell-based
Method: as §2

Candida krusei ATCC 6258 = assay: In vitro antifungal broth microdilution test; type: cell-based; details: for MIC: Pichia kudriavzevii
Method: as §2

[4] = test system: Aspergillus fumigatus 231; assay: In vitro antifungal broth microdilution test; type: cell-based
Method: as §2

spinach chloroplasts = assay: Inhibition of oxygen evolution rate (OER) / photosynthetic electron transport in spinach chloroplasts; type: biochemical, Spinacia oleracea L.; details: for IC50: DCPIP photoreduction, pH 7.2
Method: Chloroplasts were prepared from spinach (Spinacia oleracea L.) according to Masarovicova and Kralova. The inhibition of photosynthetic electron transport (PET) in spinach chloroplasts was determined spectrophotometrically (Genesys 6, Thermo Scientific, U.S.A.) using an artificial electron acceptor 2,6-dichlorophenol-indophenol (DCPIP) according to Kralova et al. and the rate of photosynthetic electron transport was monitored as a photoreduction of DCPIP. The measurements were carried out in phosphate buffer (0.02 mol/L, pH 7.2) containing sucrose (0.4 mol/L), MgCl2 (0.005 mol/L) and NaCl (0.015 mol/L). The chlorophyll content was 30 mg/L in these experiments and the samples were irradiated (~100 W/m^2) from 10 cm distance with a halogen lamp (250 W) using a 4 cm water filter to prevent warming of the samples (suspension temperature 22 °C). The studied compounds were dissolved in DMSO due to their limited water solubility. […] The inhibitory efficiency of the studied compounds was expressed by IC50 values, i.e. by molar concentration of the compounds causing 50% decrease in the oxygen evolution rate relative to the untreated control.

[5] = test system: Trichosporon beigelii 1188; assay: In vitro antifungal broth microdilution test; type: cell-based; details: RPMI 1640, pH 7.0, 35 °C; for MIC: Trichosporon beigelii, 1188, read-out: MIC/IC80 TB
Method: as §1

[6] = Trichophyton mentagrophytes, 445, 72h, RPMI 1640, pH 7.0, 35 °C, read-out: MIC/IC80 TM
[7] = Trichophyton mentagrophytes, 445, 120h, RPMI 1640, pH 7.0, 35 °C, read-out: MIC/IC80 TM
[8] = ATCC44859, 24h, RPMI 1640, pH 7.0, 35 °C, read-out: MIC/IC80 CA
[9] = ATCC44859, 48h, RPMI 1640, pH 7.0, 35 °C, read-out: MIC/IC80 CA
[10] = Candida tropicalis, 156, 24h, RPMI 1640, pH 7.0, 35 °C, read-out: MIC/IC80 CT
[11] = Candida tropicalis, 156, 48h, RPMI 1640, pH 7.0, 35 °C, read-out: MIC/IC80 CT
[12] = 24h, RPMI 1640, pH 7.0, 35 °C, read-out: MIC/IC80 CG
[13] = 48h, RPMI 1640, pH 7.0, 35 °C, read-out: MIC/IC80 CG
[14] = Lichtheimia corymbifera, 272, 24h, RPMI 1640, pH 7.0, 35 °C, read-out: MIC/IC80 AC
[15] = Lichtheimia corymbifera, 272, 48h, RPMI 1640, pH 7.0, 35 °C, read-out: MIC/IC80 AC
[16] = ATCC6258, 24h, RPMI 1640, pH 7.0, 35 °C, read-out: MIC/IC80 CK
[17] = ATCC6258, 48h, RPMI 1640, pH 7.0, 35 °C, read-out: MIC/IC80 CK
[18] = Aspergillus fumigatus, 231, 24h, RPMI 1640, pH 7.0, 35 °C, read-out: MIC/IC80 AF
[19] = Aspergillus fumigatus, 231, 48h, RPMI 1640, pH 7.0, 35 °C, read-out: MIC/IC80 AF

Compound | log k [1] | IC50 (spinach chloroplasts) [µM] | MIC ([5]; 24h) [µM] | MIC ([5]; 48h) [µM] | MIC [2, 6] [µM] | MIC [2, 7] [µM] | MIC [3, 8] [µM] | MIC [3, 9] [µM] | MIC (Candida tropicalis 156; [10]) [µM] | MIC (Candida tropicalis 156; [11]) [µM] | MIC (Candida glabrata 20/I; [12]) [µM] | MIC (Candida glabrata 20/I; [13]) [µM] | MIC (Absidia corymbifera 272; [14]) [µM] | MIC (Absidia corymbifera 272; [15]) [µM] | MIC (Candida krusei ATCC 6258; [16]) [µM] | MIC (Candida krusei ATCC 6258; [17]) [µM] | MIC [4, 18] [µM] | MIC [4, 19] [µM] | other results
3-(4-Carboxy-3-hydroxyphenylcarbamoyl)-4-hydroxy-2-oxo-1,2-dihydroquinoline-6-carboxylic acid [Compound 12] | 0.0093 | 321 | – | – | – | – | – | – | – | – | – | – | – | – | – | – | – | – | in vitro antifungal activity (in words) (eight fungal strains): only a moderate activity; MIC/IC80 TM ([2]; 72h, RPMI 1640, pH 7.0, 35 °C): 500 µM; MIC/IC80 TM ([2]; 120h, RPMI 1640, pH 7.0, 35 °C): >500 µM; MIC/IC80 CA ([3]; 24h, RPMI 1640, pH 7.0, 35 °C): 62.50 µM; MIC/IC80 CA ([3]; 48h, RPMI 1640, pH 7.0, 35 °C): 125 µM; MIC/IC80 CT (Candida tropicalis 156; 24h, RPMI 1640, pH 7.0, 35 °C): 500 µM; MIC/IC80 CT (Candida tropicalis 156; 48h, RPMI 1640, pH 7.0, 35 °C): >500 µM; MIC/IC80 CG (Candida glabrata 20/I; 24h, RPMI 1640, pH 7.0, 35 °C): 125 µM; MIC/IC80 CG (Candida glabrata 20/I; 48h, RPMI 1640, pH 7.0, 35 °C): 250 µM; MIC/IC80 AC (Absidia corymbifera 272; 24h, RPMI 1640, pH 7.0, 35 °C): 500 µM; MIC/IC80 AC (Absidia corymbifera 272; 48h, RPMI 1640, pH 7.0, 35 °C): >500 µM; MIC/IC80 CK (Candida krusei ATCC 6258; 24h, RPMI 1640, pH 7.0, 35 °C): >500 µM; MIC/IC80 CK (Candida krusei ATCC 6258; 48h, RPMI 1640, pH 7.0, 35 °C): >500 µM; MIC/IC80 AF ([4]; 24h, RPMI 1640, pH 7.0, 35 °C): 500 µM; MIC/IC80 AF ([4]; 48h, RPMI 1640, pH 7.0, 35 °C): >500 µM; MIC/IC80 TB ([5]; 24h): 125 µM; MIC/IC80 TB ([5]; 48h): >500 µM
O=c1cc(O)c2ccccc2[nH]1 [Compound 1, 4-Hydroxyquinolin-2(1H)-one] | 0.0664 | 925 | > 500 | > 500 | – | – | – | – | – | – | – | – | – | – | – | – | – | – | MIC ([2]; Trichophyton mentagrophytes, 445, 72 h, pH 7, read-out: MIC/IC80 TM): > 500 µM; MIC ([2]; Trichophyton mentagrophytes, 445, 120 h, pH 7, read-out: MIC/IC80 TM): > 500 µM; MIC ([3]; ATCC44859, 24 h, pH 7, read-out: MIC/IC80 CA): > 500 µM; MIC ([3]; ATCC44859, 48 h, pH 7, read-out: MIC/IC80 CA): > 500 µM; MIC (Candida tropicalis 156; Candida tropicalis, 156, 24 h, pH 7, read-out: MIC/IC80 CT): > 500 µM; MIC (Candida tropicalis 156; Candida tropicalis, 156, 48 h, pH 7, read-out: MIC/IC80 CT): > 500 µM; MIC (Candida glabrata 20/I; 24 h, pH 7, read-out: MIC/IC80 CG): > 500 µM; MIC (Candida glabrata 20/I; 48 h, pH 7, read-out: MIC/IC80 CG): > 500 µM; MIC (Absidia corymbifera 272; Lichtheimia corymbifera, 272, 24 h, pH 7, read-out: MIC/IC80 AC): > 500 µM; MIC (Absidia corymbifera 272; Lichtheimia corymbifera, 272, 48 h, pH 7, read-out: MIC/IC80 AC): > 500 µM; MIC (Candida krusei ATCC 6258; ATCC6258, 24 h, pH 7, read-out: MIC/IC80 CK): > 500 µM; MIC (Candida krusei ATCC 6258; ATCC6258, 48 h, pH 7, read-out: MIC/IC80 CK): > 500 µM; MIC ([4]; Aspergillus fumigatus, 231, 24 h, pH 7, read-out: MIC/IC80 AF): > 500 µM; MIC ([4]; Aspergillus fumigatus, 231, 48 h, pH 7, read-out: MIC/IC80 AF): > 500 µM
O=C(O)c1ccc2[nH]c(=O)cc(O)c2c1O [Compound 3, 4,5-Dihydroxy-2-oxo-1,2-dihydroquinoline-6-carboxylic acid] | 0.0002 | 346 | 250 (≈ 55.3 µg/mL) | > 500 | > 500 | > 500 | 125 (≈ 27.6 µg/mL) | 125 (≈ 27.6 µg/mL) | 500 (≈ 111 µg/mL) | > 500 | 250 (≈ 55.3 µg/mL) | 250 (≈ 55.3 µg/mL) | > 500 | > 500 | > 500 | > 500 | > 500 | > 500 | –
O=C(O)c1ccc(NC(=O)c2c(O)c3cc(C(=O)O)ccc3[nH]c2=O)cc1 [Compound 11, 3-(4-Carboxyphenylcarbamoyl)-4-hydroxy-2-oxo-1,2-dihydroquinoline-6-carboxylic acid] | 0.0081 | 380 | > 500 | > 500 | > 500 | > 500 | > 500 | > 500 | > 500 | > 500 | > 500 | > 500 | > 500 | > 500 | > 500 | > 500 | > 500 | > 500 | –
CCOC(=O)c1c(O)c2ccccc2[nH]c1=O [Compound 9, Ethyl 4-hydroxy-2-oxo-1,2-dihydroquinoline-3-carboxylate] | 0.4595 | 494 | > 500 | > 500 | > 500 | > 500 | > 500 | > 500 | > 500 | > 500 | > 500 | > 500 | > 500 | > 500 | > 500 | > 500 | > 500 | > 500 | OER inhibition effectiveness relative to compound 1 (spinach chloroplasts): approximately twice as effective as compound 1
O=C(/C=C/c1ccccc1)Nc1c(O)c2ccccc2[nH]c1=O [Compound 7, (2E)-N-(4-Hydroxy-2-oxo-1,2-dihydroquinolin-3-yl)-3-phenylprop-2-enamide] | 0.0128 | 916 | > 125 | > 125 | > 125 | > 125 | > 125 | > 125 | > 125 | > 125 | > 125 | > 125 | > 125 | > 125 | > 125 | > 125 | > 125 | > 125 | –
